The source of these data is patent US11964953B2, “Substituted aminothiazoles as DGKzeta inhibitors for immune activation” (Bayer Aktiengesellschaft, priority 2020, dated 2024).

Molecules are shown by their SMILES.

The assay concerns the target human DGKζ (Homo sapiens (Human), UniProt Q13574). Description: Human DGKζ kinase activity inhibition assay (ADP-Glo). The conditions noted are these: in vitro human DGKζ kinase activity inhibition assay; read-out: IC50. It counts as biochemical. As for the experimental part:
Human DGKζ Kinase Activity Inhibition Assay. Human diacylglycerol kinase zeta (DGKζ) inhibitory activity of compounds of the present invention was quantified employing the human DGKζ kinase activity assay as described in the following paragraphs. In essence, the enzyme activity was measured by quantification of the adenosine-di-phosphate (ADP) generated as a co-product of the enzyme reaction via the “ADP-Glo™ Kinase Assay” kit from the company Promega. This detection system works as follows: In a first step the adenosine-tri-phosphate (ATP) not consumed in the kinase reaction is quantitatively converted to cyclic adenosine-mono-phosphate (cAMP) employing an adenylate cyclase (“ADP-Glo-reagent”), then the adenylate cyclase is stopped and the ADP generated in the kinase reaction is converted to ATP, which subsequently generates in a luciferase-based reaction a glow-luminescence signal (“Kinase Detection Reagent”). C-terminally FLAG-tagged, recombinant full-length human DGKζ (in house expressed in baculovirus infected insect cells, purified using anti-Flag pulldown and size exclusion chromatography) was used as enzyme. As an alternative, commercially available enzyme by Carnabio can be used. […] Subsequently, 22.55 volumes of a 510 mM solution of octyl-β-D-glucopyranoside (Sigma-Aldrich, Cat. #O8001-10G) in 50 mM MOPS buffer (pH 7.4) were added, and the mixture was sonicated in an ultrasonic bath for 20 s. […] Viewlux™ from Perkin-Elmer). The amount of emitted light was taken as a measure for the amount of ADP generated and thereby for the activity of the DGKζ.
(In general: ADP-Glo turns the ADP formed in a reaction into a luminescent signal.)

Sequence of human DGKζ (Q13574 other isoform, or with tags, fused parts or gaps): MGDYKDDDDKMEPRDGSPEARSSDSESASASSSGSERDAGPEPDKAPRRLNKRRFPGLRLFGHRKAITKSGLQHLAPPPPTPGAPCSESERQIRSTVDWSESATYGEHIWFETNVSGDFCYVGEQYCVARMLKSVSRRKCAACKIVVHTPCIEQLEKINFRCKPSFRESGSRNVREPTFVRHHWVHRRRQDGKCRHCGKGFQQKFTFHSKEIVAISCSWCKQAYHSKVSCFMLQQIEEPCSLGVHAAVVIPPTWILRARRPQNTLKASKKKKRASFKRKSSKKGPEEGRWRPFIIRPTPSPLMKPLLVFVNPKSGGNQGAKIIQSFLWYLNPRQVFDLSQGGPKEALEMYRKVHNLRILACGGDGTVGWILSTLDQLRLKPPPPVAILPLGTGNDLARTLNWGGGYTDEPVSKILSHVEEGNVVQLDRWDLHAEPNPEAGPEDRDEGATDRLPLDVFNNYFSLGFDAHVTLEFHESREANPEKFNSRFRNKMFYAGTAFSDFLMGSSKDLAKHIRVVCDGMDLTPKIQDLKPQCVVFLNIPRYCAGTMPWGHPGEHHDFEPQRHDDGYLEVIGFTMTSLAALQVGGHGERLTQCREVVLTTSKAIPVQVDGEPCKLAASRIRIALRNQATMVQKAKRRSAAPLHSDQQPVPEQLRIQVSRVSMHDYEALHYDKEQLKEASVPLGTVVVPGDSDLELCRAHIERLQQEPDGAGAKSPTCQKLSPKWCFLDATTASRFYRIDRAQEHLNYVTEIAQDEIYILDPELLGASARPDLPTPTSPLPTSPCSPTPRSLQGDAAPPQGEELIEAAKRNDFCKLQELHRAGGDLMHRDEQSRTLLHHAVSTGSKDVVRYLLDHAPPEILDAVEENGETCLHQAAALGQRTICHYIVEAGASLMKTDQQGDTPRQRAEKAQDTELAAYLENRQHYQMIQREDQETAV

On to `CC(C(N)=O)N(c1ccc(F)cc1)c1nc(N)c(C(=O)c2ccc(C(F)(F)F)nc2)s1` (racemic) [Example 29, rac-2-(N-[4-amino-5-[6-(trifluoromethyl)pyridine-3-carbonyl]thiazol-2-yl]-4-fluoro-anilino)propanamide], for which the IC50 – broadly, the concentration at which inhibition is half-maximal – was 58.4 nM.
The result for `CC(C(N)=O)N(c1nc(N)c(C(=O)c2ccccc2)s1)c1ccc(Cl)cc1F` (racemic) [Example 30, rac-2-(N-(4-amino-5-benzoyl-thiazol-2-yl)-4-chloro-2-fluoro-anilino)propanamide] reads 57.5 nM; that for `CC(C(N)=O)N(c1ccc(F)cc1)c1nc(N)c(C(=O)c2ccc3c(c2)CCC3)s1` (racemic) [Example 31, rac-2-(N-[4-amino-5-(indane-5-carbonyl)thiazol-2-yl]-4-fluoro-anilino)propanamide], 43.5 nM.
The value for `CC(C(N)=O)N(c1ccc(F)c(F)c1)c1nc(N)c(C(=O)c2ccccc2)s1` (racemic) [Example 32, rac-2-(N-(4-amino-5-benzoyl-thiazol-2-yl)-3,4-difluoro-anilino)propanamide] was 38.7 nM.
On to `CC(C(N)=O)N(c1ccc(F)cc1)c1nc(N)c(C(=O)c2ccc(C#N)cc2)s1` (racemic) [Example 33, rac-2-(N-[4-amino-5-(4-cyanobenzoyl)thiazol-2-yl]-4-fluoro-anilino)propanamide], for which the IC50 was determined as 42.8 nM.
With `CC(C(N)=O)N(c1ccc(Cl)cc1)c1nc(N)c(C(=O)c2ccccc2)s1` (racemic) [Example 34, rac-2-(N-(4-amino-5-benzoyl-thiazol-2-yl)-4-chloro-anilino)propanamide], the half-inhibitory concentration (IC50) is 34.4 nM.
For `CC(C(N)=O)N(c1ccc(Cl)c(Cl)c1)c1nc(N)c(C(=O)c2ccccc2)s1` (racemic) [Example 35, rac-2-(N-(4-amino-5-benzoyl-thiazol-2-yl)-3,4-dichloro-anilino)propanamide], the IC50 was determined as 25.3 nM.
Take `CC(C(N)=O)N(c1ccc(Cl)c(F)c1)c1nc(N)c(C(=O)c2ccccc2)s1` (racemic) [Example 36, rac-2-(N-(4-amino-5-benzoyl-thiazol-2-yl)-4-chloro-3-fluoro-anilino)propanamide]: the IC50 was determined as 22.2 nM.
`CC(C(N)=O)N(c1ccc(Cl)cc1)c1nc(N)c(C(=O)c2ccc(F)cc2)s1` (racemic) [Example 37, rac-2-(N-[4-amino-5-(4-fluorobenzoyl)thiazol-2-yl]-4-chloro-anillno)propanamide]: the IC50 was found to be 19.8 nM.
With `CC(C(N)=O)N(c1ccc(F)cc1)c1nc(N)c(C(=O)c2ccc(Cl)cc2)s1` (racemic) [Example 38, rac-2-(N-[4-amino-5-(4-chlorobenzoyl)thiazol-2-yl]-4-fluoro-anilino)propanamide], the IC50 is 19.3 nM.
As to `CCOC(=O)C(C)(C)Oc1ccc(C(=O)c2sc(N(c3ccc(F)cc3)C(C)C(N)=O)nc2N)cc1` (racemic) [Example 39, Rac-ethyl 2-[4-[4-amino-2-(N-[2-amino-1-methyl-2-oxo-ethyl]-4-fluoro-anilino)thiazole-5-carbonyl]phenoxy]-2-methyl-propanoate], the half-maximal inhibitory concentration (IC50) is 19 nM.
The value for `CC(C(N)=O)N(c1ccc(F)cc1)c1nc(N)c(C(=O)c2ccc(OC(F)(F)F)cc2)s1` (racemic) [Example 40, rac-2-(N-[4-amino-5-[4-(trifluoromethoxy)benzoyl]thiazol-2-yl]-4-fluoro-anilino)propanamide] was 15.4 nM.
The value for `CC(C(N)=O)N(c1ccc(Cl)cc1)c1nc(N)c(C(=O)c2ccc(Cl)cc2)s1` (racemic) [Example 41, rac-2-(N-[4-amino-5-(4-chlorobenzoyl)thiazol-2-yl]-4-chloro-anilino)propanamide] was 13.5 nM; that for `CC(C(N)=O)N(c1ccc(F)cc1)c1nc(N)c(C(=O)c2ccc(C(F)(F)F)cc2)s1` (racemic) [Example 42, rac-2-(N-[4-amino-5-[4-(trifluoromethyl)benzoyl]thiazol-2-yl]-4-fluoro-anilino)propanamide] was 11.3 nM.
For the molecule `CC(C(N)=O)N(c1ccc(C(F)(F)F)cc1)c1nc(N)c(C(=O)c2ccc(OC(F)F)cc2)s1` (racemic) [Example 43, rac-2-[N-[4-amino-5-[4-(difluoromethoxy)benzoyl]thiazol-2-yl-4-(trifluoromethyl)anilino]propanamide], the IC50 is 11.1 nM.
The value for `CC(C(N)=O)N(c1ccc(F)cc1)c1nc(N)c(C(=O)c2ccc(OC(F)F)cc2)s1` (racemic) [Example 44, rac-2-(N-[4-amino-5-[4-(difluoromethoxy)benzoyl]thiazol-2-yl]-4-fluoro-anilino)propanamide] was 8.83 nM.
As for `CC(Oc1ccc(C(=O)c2sc(N(c3ccccc3)C(C)C(N)=O)nc2N)cc1)C(N)=O` (racemic) [Example 45, 2-(N-[4-amino-5-[4-[2-amino-1-methyl-2-oxo-ethoxy]benzoyl]thiazol-2-yl]anilino)propanamide], the IC50 is 338 nM.
Consider `CC(C(N)=O)N(c1nc(N)c(C(=O)c2ccc(OC(F)F)cc2)s1)c1ccc(Cl)cc1F` (racemic) [Example 46, rac-2-(N-[4-amino-5-[4-(difluoromethoxy)benzoyl]thiazol-2-yl]-4-chloro-2-fluoro-anilino)propanamide], for which the 50% inhibitory concentration (IC50) is 7.07 nM.
The result for `CC(C(N)=O)N(c1ccc(Cl)cc1)c1nc(N)c(C(=O)c2ccc(OC(F)F)cc2)s1` (racemic) [Example 47, rac-2-(N-[4-amino-5-[4-(difluoromethoxy)benzoyl]thiazol-2-yl]-4-chloro-anilino)propanamide] reads 3.77 nM; that for `CC(C(N)=O)N(c1ccc(Cl)c(F)c1)c1nc(N)c(C(=O)c2ccc(OC(F)F)cc2)s1` (racemic) [Example 48, rac-2-(N-[4-amino-5-[4-(difluoromethoxy)benzoyl]thiazol-2-yl]-4-chloro-3-fluoro-anilino)propanamide], 3.72 nM.
The value for `CC(C(N)=O)N(c1ccc(F)c(F)c1)c1nc(N)c(C(=O)c2ccc(OC(F)F)cc2)s1` (racemic) [Example 49, rac-2-(N-[4-amino-5-[4-(difluoromethoxy)benzoyl]thiazol-2-yl]-3,4-difluoro-anilino)propanamide] was 2.76 nM.
The value for `CC(C(N)=O)N(c1ccc(F)c(F)c1)c1nc(N)c(C(=O)c2ccncc2)s1` (racemic) [Example 50, rac-2-(N-[4-amino-5-(pyridine-4-carbonyl)thiazol-2-yl]-3,4-difluoro-anilino)propanamide] was 378 nM; that for `COc1ccc(C(=O)c2sc(N(c3ccc(F)c(F)c3)C(C)C(N)=O)nc2N)cc1` (racemic) [Example 51, rac-2-(N-[4-amino-5-(4-methoxybenzoyl)thiazol-2-yl]-3,4-difluoro-anilino)propanamide] was 16.6 nM.
Take `COc1ccc(C(=O)c2sc(N(c3ccc(F)c(F)c3)C(C)C(N)=O)nc2N)cn1` (racemic) [Example 52, rac-2-(N-[4-amino-5-(6-methoxypyridine-3-carbonyl)thiazol-2-yl]-3,4-difluoro-anilino)propanamide]: the half-maximal inhibitory concentration (IC50) was found to be 99.2 nM.
The result for `CC(C(N)=O)N(c1ccc(F)c(F)c1)c1nc(N)c(C(=O)c2ccc(C(F)(F)F)nc2)s1` (racemic) [Example 53, rac-2-(N-[4-amino-5-[6-(trifluoromethyl)pyridine-3-carbonyl]thiazol-2-yl]-3,4-difluoro-anilino)propanamide] reads 30.8 nM.
The value for `Cc1nc(N(c2ccc(F)c(F)c2)C(C)C(N)=O)sc1C(=O)c1ccc(OC(F)F)cc1` (racemic) [Example 55, rac-2-(N-[5-[4-(difluoromethoxy)benzoyl]-4-methyl-thiazol-2-yl]-3,4-difluoro-anilino)propanamide] was 9.74 nM.
The result for `CC(C(N)=O)N(c1ccc(Cl)c(F)c1)c1nc(N)c(C(=O)c2ccncc2)s1` (racemic) [Example 56, rac-2-(N-[4-amino-5-(pyridine-4-carbonyl)thiazol-2-yl]-4-chloro-3-fluoro-anilino)propanamide] reads 120 nM; that for `CC(C(N)=O)N(c1ccc(Cl)cc1)c1nc(N)c(C(=O)c2ccncc2)s1` (racemic) [Example 57, rac-2-(N-[4-amino-5-(pyridine-4-carbonyl)thiazol-2-yl]-4-chloro-anilino)propanamide], 155 nM; that for `COc1ccc(C(=O)c2sc(N(c3ccc(Cl)cc3)C(C)C(N)=O)nc2N)cc1` (racemic) [Example 58, rac-2-(N-[4-amino-5-(4-methoxybenzoyl)thiazol-2-yl]-4-chloro-anilino)propanamide], 16.7 nM.
As for `COc1ccc(C(=O)c2sc(N(c3ccc(Cl)c(F)c3)C(C)C(N)=O)nc2N)cc1` (racemic) [Example 59, rac-2-(N-[4-amino-5-(4-methoxybenzoyl)thiazol-2-yl]-4-chloro-3-fluoro-anilino)propanamide], the IC50 was determined as 10.3 nM.
With `CC(C(N)=O)N(c1ccccc1)c1nc(N)c(C(=O)c2ccccc2)s1` (racemic) [Example 60, rac-2-(N-(4-amino-5-benzoyl-thiazol-2-yl)anilino)propanamide], the IC50 worked out at 403 nM.
The result for `CC(C(N)=O)N(c1ccc(F)cc1)c1nc(N)c(C(=O)c2ccccc2)s1` (racemic) [Example 61, rac-2-(N-(4-amino-5-benzoyl-thiazol-2-yl)-4-fluoro-anilino)propanamide] reads 93.2 nM.
